18 compounds from the OPERA property sets (Mansouri et al. 2018) can be followed below.

`CC(C)C(=O)Nc1cc(Cl)ccc1S(N)(=O)=O`: the logP worked out at 1.87.
For `COc1ccc(S(=O)(=O)NC(=O)C(C)C)c(N)c1`, the logP came out at 1.58.
For the compound `CCC(CC)C(=O)NS(=O)(=O)c1ccccc1[N+](=O)[O-]`, the logP turned out to be 2.17.
Regarding `CCC(CC)C(=O)Nc1cc(C)ccc1S(N)(=O)=O`, the logP was found to be 2.13.
On to `COc1ccc(S(N)(=O)=O)c(NC(=O)C(C)C)c1`, for which the lipophilicity (logP) was 1.37.
The value for `CCC(CC)C(=O)Nc1cc(C(F)(F)F)ccc1S(N)(=O)=O` was 3.06; that for `CCC(CC)C(=O)NS(=O)(=O)c1ccccc1N` was 1.64; that for `CC(C)C(=O)NS(=O)(=O)c1ccccc1[N+](=O)[O-]` was 1.72.
The value for `CCC(CC)C(=O)Nc1cc(OC)ccc1S(N)(=O)=O` was 2.01; that for `CCC(CC)C(=O)Nc1ccccc1S(N)(=O)=O` was 1.62.
As to `CCC(CC)C(=O)NS(=O)(=O)c1ccc(OC)cc1N`, the log partition coefficient (logP) stood at 2.03.
The compound `Cc1ccc(S(N)(=O)=O)c(NC(=O)C(C)C)c1` returned a logP of 1.45.
In turn, `CC(C)C(=O)Nc1ccccc1S(N)(=O)=O` returned a logP of 0.97.
The value for `CCC(CC)C(=O)NS(=O)(=O)c1ccc(C)cc1[N+](=O)[O-]` was 2.67; that for `Cc1ccc(S(=O)(=O)NC(=O)C(C)C)c([N+](=O)[O-])c1` was 2.17.
The compound `CCC(CC)C(=O)NS(=O)(=O)c1cc([N+](=O)[O-])cc(C(F)(F)F)c1` gave a logP of 3.57.
The compound `Cc1ccc(S(=O)(=O)NC(=O)C(C)C)c(N)c1` yielded a log partition coefficient (logP) of 1.65.
`CC(C)C(=O)NS(=O)(=O)c1ccccc1N` returned a logP of 1.17.

Broadly, the logP is the decadic logarithm of the partition coefficient of the neutral form, usually between octanol and water. A lower logP goes with a more hydrophilic compound.
